Reference: paper PMC6359137 (2019)

Tested on: AFM1 aptamer (DNA, aptamer) ACTGCTAGAGATTTTCCACAT
Experiment: strand displacement, Exo III-amplified NMM fluorescence
Settings: K+ 75 mM, Mg2+ 10 mM; C-strand (S2) displaced; highest tested 1 ng mL^-1; 37 °C; compared with blank milk

- binding: no
Compound: C[C@@H]1Cc2c(Cl)cc(C(=O)N[C@@H](Cc3ccccc3)C(=O)O)c(O)c2C(=O)O1
